Assay: pKa values in water of the activators
Format: physicochemical
Details: for pKa: read-out: pKa in H2O

Molecule	pKa	pKa in H2O
Cn1nnnc1S [Activator 1-Me-MCT, 5-mercapto-1-methyltetrazole]	3.86	–
Sc1nnnn1-c1ccccc1 [Activator 1-Ph-MCT, 5-mercapto-1-phenyltetrazole]	3.65	–
c1ccc(CSc2nnn[nH]2)cc1 [BTT, 5-benzylthiotetrazole]	4.1	–
CCSc1nnn[nH]1 [ETT, 5-ethylthio-1H-tetrazole]	4.3	–
saccharin 1-methylimidazole [SMI]	–	7

Source: patent publication US20240391945A1, “NUCLEIC ACID SYNTHESIS METHOD USING SEGMENT-TYPE AMIDITE” (NITTO DENKO CORPORATION, priority 2020, published 2024)
